Source: patent US9808003B2, “Herbicidally active 2-(substituted-phenyl)-cyclopentane-1,3-dione compounds and derivatives thereof” (Syngenta Limited, priority 2013, dated 2017)

Tests used:
Experiment in all cases: Test 1A glasshouse assay, post-emergence herbicidal activity
Type in all cases: in vivo
[1] = system: Alopecurus myosuroides (ALOMY); settings: Alopecurus myosuroides, 312 h, application rate 250 g/ha, 13 days after application, visual (100%=total damage; 0%=no damage), read-out: Post-emergence Herbicidal Activity (% Phytotoxicity) ALOMY
Experimental: (§1) Seeds of a variety of test species were sown in standard soil in pots. After cultivation for one day (pre-emergence) or after 8 days cultivation (post-emergence) under controlled conditions in a glasshouse (at 24/16° C., day/night; 14 hours light; 65% humidity), the plants were sprayed with an aqueous spray solution derived from the formulation of the technical active ingredient in acetone/water (50:50) solution containing 0.5% Tween 20 (polyoxyethelyene sorbitan monolaurate, CAS RN 9005-64-5). The test plants were then grown under controlled conditions in a glasshouse (at 24/16° C., day/night; 14 hours light; 65% humidity) and watered twice daily. 13 days after application of the test herbicide, for pre- and post-emergence, the test was evaluated visually for percentage phytotoxicity to the plant (where 100%=total damage to plant; 0%=no damage to plant).
(§2) Lolium perenne (LOLPE), Alopecurus myosuroides (ALOMY), Echinochloa crus-galli (ECHCG), and Avena fatua (AVEFA); these are all grassy monocotyledonous weeds.

Lolium perenne (LOLPE) = settings: Lolium perenne, 312 h, application rate 250 g/ha, 13 days after application, visual (100%=total damage; 0%=no damage), read-out: Post-emergence Herbicidal Activity (% Phytotoxicity) LOLPE
Experimental: as §1, §2

[2] = system: Echinochloa crus-galli (ECHCG); settings: Echinochloa crus-galli, 312 h, application rate 250 g/ha, 13 days after application, visual (100%=total damage; 0%=no damage), read-out: Post-emergence Herbicidal Activity (% Phytotoxicity) ECHCG
Experimental: as §1, §2

Avena fatua (AVEFA) = settings: Avena fatua, 312 h, application rate 250 g/ha, 13 days after application, visual (100%=total damage; 0%=no damage), read-out: Post-emergence Herbicidal Activity (% Phytotoxicity) AVEFA
Experimental: as §1, §2

SMILES | pest or weed control at 250 g/ha [1] | pest or weed control at 250 g/ha (Lolium perenne (LOLPE)) | pest or weed control at 250 g/ha [2] | pest or weed control at 250 g/ha (Avena fatua (AVEFA))
Cc1cc(C)c(C2C(=O)CC(CCNC(=O)c3ccc(Cl)nc3Cl)C2=O)c(C)c1 (stereo not drawn) [Compound A24] | 80% | 90% | 80% | 80%
Cc1cc(C)c(C2C(=O)CC(CCNC(=O)c3cc(Cl)nc(Cl)c3)C2=O)c(C)c1 (stereo not drawn) [Compound A25] | 50% | 60% | 80% | 40%
Cc1cc(C)c(C2C(=O)CC(CCNC(=O)c3cccnc3Cl)C2=O)c(C)c1 (stereo not drawn) [Compound A26] | 80% | 80% | 80% | 80%
Cc1cc(C)c(C2C(=O)CC(CCNC(=O)c3ccc4ccccc4n3)C2=O)c(C)c1 (stereo not drawn) [Compound A27] | 80% | 70% | 100% | 90%
COc1cc(C(=O)NCCC2CC(=O)C(c3c(C)cc(C)cc3C)C2=O)cc(Cl)n1 (stereo not drawn) [Compound A28] | 100% | 70% | 80% | 50%
Cc1cc(C)c(C2C(=O)CC(CCNC(=O)c3ccc(C(F)(F)F)nc3)C2=O)c(C)c1 (stereo not drawn) [Compound A29] | 80% | 80% | 80% | 90%
Cc1cc(C)c(C2C(=O)CC(CCNC(=O)C3CCOCC3)C2=O)c(C)c1 (stereo not drawn) [Compound A35] | 80% | 60% | 40% | 40%
Cc1cc(C)c(C2C(=O)CC(CCNC(=O)C3CCOC3)C2=O)c(C)c1 (stereo not drawn) [Compound A36] | 80% | 80% | 80% | 70%
Cc1cc(C)c(C2C(=O)CC(CCNC(=O)c3cccc[n+]3[O-])C2=O)c(C)c1 (stereo not drawn) [Compound A37] | 100% | 90% | 80% | 80%
Cc1cc(-c2ccc(Cl)cn2)cc(C)c1C1C(=O)CC(CCNC(=O)c2ccccn2)C1=O (stereo not drawn) [Compound A38] | 100% | 100% | 100% | 100%
Cc1cc(C)c(C2C(=O)CC(CCNC(=O)c3nc(Cl)ccc3Cl)C2=O)c(C)c1 (stereo not drawn) [Compound A39] | 100% | 100% | 100% | 100%
Cc1cc(C)c(C2C(=O)CC(CCNC(=O)c3nc(Cl)ccc3Br)C2=O)c(C)c1 (stereo not drawn) [Compound A40] | 100% | 100% | 100% | 100%
Cc1cc(C)c(C2C(=O)CC(CCNC(=O)c3ncccc3N)C2=O)c(C)c1 (stereo not drawn) [Compound A41] | 70% | 70% | 60% | 70%
Cc1cc(C)c(C2C(=O)CC(CCNC(=O)c3ncc(C(F)(F)F)cc3Cl)C2=O)c(C)c1 (stereo not drawn) [Compound A43] | 100% | 100% | 100% | 100%
Cc1cc(C)c(C2C(=O)CC(CCNC(=O)c3ncccc3Cl)C2=O)c(C)c1 (stereo not drawn) [Compound A44, 3-chloro-N-[2-[2,4-dioxo-3-(2,4,6-trimethylphenyl)cyclopentyl]ethyl]pyridine-2-carboxamide] | 100% | 100% | 100% | 90%
Cc1cc(C)c(C2C(=O)CC(CCNC(=O)Cc3ccccn3)C2=O)c(C)c1 (stereo not drawn) [Compound A45] | 50% | 80% | 60% | 80%
Cc1cc(C)c(C2C(=O)CC(CCNC(=O)c3ncccc3Br)C2=O)c(C)c1 (stereo not drawn) [Compound A46] | 60% | 100% | 90% | 70%
Cc1cc(C)c(C2C(=O)CC(CCNC(=O)c3cccc(Cl)n3)C2=O)c(C)c1 (stereo not drawn) [Compound A47] | 80% | 100% | 100% | 90%
